Assay [1] has as its target Ribosomal protein S6 kinase alpha-6 (Homo sapiens) (UniProt Q9UK32). Briefly: Inhibition of human recombinant RSK4 at 40 nM in presence of ATP by radiometric assay relative to control.
Assay [2] addresses T1, Serine/threonine-protein kinase Sgk2 (Homo sapiens) (UniProt Q9HBY8).
T1 sequence (whole entry): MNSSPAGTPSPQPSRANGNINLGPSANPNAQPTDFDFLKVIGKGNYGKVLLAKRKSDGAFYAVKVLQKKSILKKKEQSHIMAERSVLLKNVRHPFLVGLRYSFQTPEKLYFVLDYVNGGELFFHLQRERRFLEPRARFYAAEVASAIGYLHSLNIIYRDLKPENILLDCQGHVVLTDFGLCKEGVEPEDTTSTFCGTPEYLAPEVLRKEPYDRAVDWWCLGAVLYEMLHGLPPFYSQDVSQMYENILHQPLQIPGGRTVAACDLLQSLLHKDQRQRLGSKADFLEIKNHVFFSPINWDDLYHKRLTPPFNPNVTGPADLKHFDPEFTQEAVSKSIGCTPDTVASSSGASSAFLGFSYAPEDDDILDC
The experiment in a line: Inhibition of human recombinant SGK2 at 40 nM related to control ULK1.

Assay [3] has as its target Tyrosine-protein kinase Lck (Homo sapiens) (UniProt P06239). The experiment in a line: Inhibition of human recombinant LCK at 500 nM related to control ULK1.
In assay [4] the target is T2, NUAK family SNF1-like kinase 1 (Homo sapiens) (UniProt O60285).
T2 sequence (whole entry): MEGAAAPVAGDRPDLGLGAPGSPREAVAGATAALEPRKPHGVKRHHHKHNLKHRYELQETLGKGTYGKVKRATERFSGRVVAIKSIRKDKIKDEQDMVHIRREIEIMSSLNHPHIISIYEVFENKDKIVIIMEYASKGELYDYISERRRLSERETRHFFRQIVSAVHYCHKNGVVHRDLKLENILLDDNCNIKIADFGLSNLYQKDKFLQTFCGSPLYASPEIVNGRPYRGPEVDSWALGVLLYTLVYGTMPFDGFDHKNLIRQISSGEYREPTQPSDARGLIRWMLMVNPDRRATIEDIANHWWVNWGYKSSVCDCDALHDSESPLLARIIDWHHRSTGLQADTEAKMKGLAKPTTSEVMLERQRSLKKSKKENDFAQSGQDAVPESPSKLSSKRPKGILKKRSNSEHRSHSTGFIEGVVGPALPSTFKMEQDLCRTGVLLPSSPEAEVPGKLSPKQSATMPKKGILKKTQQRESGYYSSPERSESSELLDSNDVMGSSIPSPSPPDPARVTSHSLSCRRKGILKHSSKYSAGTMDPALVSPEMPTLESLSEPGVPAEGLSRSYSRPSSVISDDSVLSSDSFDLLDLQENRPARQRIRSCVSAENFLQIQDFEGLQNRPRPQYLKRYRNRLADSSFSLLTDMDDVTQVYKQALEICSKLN
The experiment in a line: Inhibition of human recombinant NuaK1 at 500 nM related to control ULK1.

Assay [5] has as its target Tyrosine-protein kinase Fgr (Homo sapiens) (UniProt P09769). Briefly: Inhibition of human recombinant FGR at 500 nM in presence of ATP by radiometric assay relative to control.
For assay [6], the target named is T3, Aurora kinase C (Homo sapiens) (UniProt Q9UQB9).
T3 sequence (whole entry): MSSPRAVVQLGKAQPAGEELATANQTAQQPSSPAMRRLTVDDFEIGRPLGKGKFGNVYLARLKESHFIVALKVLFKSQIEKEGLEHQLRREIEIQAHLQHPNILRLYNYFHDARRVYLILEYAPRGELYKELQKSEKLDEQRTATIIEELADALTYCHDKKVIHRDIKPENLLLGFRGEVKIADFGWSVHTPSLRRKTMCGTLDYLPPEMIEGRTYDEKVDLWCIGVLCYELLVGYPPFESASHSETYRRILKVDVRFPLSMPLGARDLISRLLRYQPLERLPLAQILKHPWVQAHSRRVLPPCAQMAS
Briefly: Inhibition of human recombinant AurC at 15 nM related to control ULK1.

Assay [7] concerns the target Tyrosine-protein kinase Fer (Homo sapiens) (UniProt P16591). Briefly: Inhibition of human recombinant FER at 15 nM in presence of ATP by radiometric assay relative to control.
The target in assay [8] is Ephrin type-A receptor 2 (Homo sapiens) (UniProt P29317). The experiment in a line: Inhibition of human recombinant EphA2 at 15 nM in presence of ATP by radiometric assay relative to control.
Chain of Ephrin type-A receptor 2 (Homo sapiens) (P29317 whole entry): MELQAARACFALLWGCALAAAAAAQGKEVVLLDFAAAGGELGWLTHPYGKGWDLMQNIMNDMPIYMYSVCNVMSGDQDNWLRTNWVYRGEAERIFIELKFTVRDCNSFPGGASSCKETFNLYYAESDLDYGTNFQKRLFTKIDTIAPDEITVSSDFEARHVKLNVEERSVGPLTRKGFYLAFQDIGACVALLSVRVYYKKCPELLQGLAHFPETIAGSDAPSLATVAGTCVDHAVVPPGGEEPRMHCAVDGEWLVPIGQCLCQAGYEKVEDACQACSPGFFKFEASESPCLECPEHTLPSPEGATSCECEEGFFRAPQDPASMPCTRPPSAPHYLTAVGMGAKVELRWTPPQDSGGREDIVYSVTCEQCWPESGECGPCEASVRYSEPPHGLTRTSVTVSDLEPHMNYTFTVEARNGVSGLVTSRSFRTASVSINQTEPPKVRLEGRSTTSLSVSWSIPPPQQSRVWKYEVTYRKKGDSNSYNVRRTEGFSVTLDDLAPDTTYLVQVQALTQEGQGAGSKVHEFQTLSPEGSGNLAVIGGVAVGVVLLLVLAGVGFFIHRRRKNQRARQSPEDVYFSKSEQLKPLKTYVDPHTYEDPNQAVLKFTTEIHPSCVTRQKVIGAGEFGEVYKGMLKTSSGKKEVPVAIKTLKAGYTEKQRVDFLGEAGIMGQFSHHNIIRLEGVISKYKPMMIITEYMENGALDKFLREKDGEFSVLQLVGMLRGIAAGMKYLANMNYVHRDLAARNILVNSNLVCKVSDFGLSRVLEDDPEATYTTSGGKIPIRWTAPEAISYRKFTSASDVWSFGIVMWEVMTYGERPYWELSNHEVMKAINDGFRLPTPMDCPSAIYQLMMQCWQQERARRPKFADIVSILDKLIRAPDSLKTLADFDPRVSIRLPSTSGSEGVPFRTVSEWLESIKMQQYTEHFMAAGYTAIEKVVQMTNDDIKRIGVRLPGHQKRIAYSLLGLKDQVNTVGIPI
For assay [9], the target named is Ribosomal protein S6 kinase alpha-2 (Homo sapiens) (UniProt Q15349). Briefly: Inhibition of human recombinant RSK3 at 15 nM in presence of ATP by radiometric assay relative to control.
Chain of Ribosomal protein S6 kinase alpha-2 (Homo sapiens) (Q15349 whole entry): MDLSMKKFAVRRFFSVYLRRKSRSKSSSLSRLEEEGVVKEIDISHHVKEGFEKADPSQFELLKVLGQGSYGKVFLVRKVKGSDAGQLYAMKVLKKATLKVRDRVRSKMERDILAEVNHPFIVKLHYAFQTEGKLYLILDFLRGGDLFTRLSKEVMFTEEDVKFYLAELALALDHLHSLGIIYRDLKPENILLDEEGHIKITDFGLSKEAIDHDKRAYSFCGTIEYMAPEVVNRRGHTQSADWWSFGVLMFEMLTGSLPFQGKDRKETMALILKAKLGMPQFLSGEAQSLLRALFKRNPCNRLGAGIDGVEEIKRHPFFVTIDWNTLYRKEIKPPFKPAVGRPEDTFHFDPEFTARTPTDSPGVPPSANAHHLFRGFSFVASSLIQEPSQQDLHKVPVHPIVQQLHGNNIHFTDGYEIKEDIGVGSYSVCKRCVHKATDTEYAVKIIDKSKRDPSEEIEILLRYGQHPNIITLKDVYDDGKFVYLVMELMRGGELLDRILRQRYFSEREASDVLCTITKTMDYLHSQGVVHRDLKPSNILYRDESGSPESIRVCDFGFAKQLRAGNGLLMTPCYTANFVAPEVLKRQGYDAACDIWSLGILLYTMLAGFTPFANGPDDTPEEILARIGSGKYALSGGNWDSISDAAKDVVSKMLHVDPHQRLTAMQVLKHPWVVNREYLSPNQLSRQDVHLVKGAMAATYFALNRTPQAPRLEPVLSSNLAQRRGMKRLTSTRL
The target in assay [10] is Cyclin-dependent kinase 6 (Homo sapiens) (UniProt Q00534). Briefly: Inhibition of human recombinant CDK6 at 15 nM related to control ULK1.
Chain of Cyclin-dependent kinase 6 (Homo sapiens) (Q00534 whole entry): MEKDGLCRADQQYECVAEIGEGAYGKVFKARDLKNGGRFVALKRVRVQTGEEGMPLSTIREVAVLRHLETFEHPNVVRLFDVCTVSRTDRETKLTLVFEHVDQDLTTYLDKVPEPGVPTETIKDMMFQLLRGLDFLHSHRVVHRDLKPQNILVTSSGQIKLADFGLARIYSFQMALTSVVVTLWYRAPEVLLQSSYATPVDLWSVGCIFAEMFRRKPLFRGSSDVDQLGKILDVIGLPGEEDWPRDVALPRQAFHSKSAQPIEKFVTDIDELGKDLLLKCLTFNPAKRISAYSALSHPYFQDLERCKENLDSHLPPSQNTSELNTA
Assay [11] concerns the target T4, Serine/threonine-protein kinase TBK1 (Homo sapiens) (UniProt Q9UHD2).
T4 sequence (whole entry): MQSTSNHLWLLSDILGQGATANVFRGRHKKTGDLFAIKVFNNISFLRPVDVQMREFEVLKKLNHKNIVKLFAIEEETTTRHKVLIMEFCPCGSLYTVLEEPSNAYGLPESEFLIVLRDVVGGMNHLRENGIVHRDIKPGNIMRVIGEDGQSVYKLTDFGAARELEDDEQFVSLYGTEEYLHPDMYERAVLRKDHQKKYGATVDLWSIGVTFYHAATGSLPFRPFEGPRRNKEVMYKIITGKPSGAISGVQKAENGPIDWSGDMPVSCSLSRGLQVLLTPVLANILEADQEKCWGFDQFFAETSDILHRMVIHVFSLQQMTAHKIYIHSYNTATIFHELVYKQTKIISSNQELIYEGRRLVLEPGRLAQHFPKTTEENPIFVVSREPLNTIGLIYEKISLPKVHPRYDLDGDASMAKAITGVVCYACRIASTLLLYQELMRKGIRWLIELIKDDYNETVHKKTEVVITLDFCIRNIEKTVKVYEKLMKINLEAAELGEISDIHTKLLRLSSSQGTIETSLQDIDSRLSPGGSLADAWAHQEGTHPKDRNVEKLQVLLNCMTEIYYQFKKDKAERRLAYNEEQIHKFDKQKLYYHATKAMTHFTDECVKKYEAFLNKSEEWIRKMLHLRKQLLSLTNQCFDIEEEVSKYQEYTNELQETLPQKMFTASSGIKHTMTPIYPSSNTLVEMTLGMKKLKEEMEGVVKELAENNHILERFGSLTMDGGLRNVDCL
The experiment in a line: Inhibition of human recombinant TBK1 at 15 nM in presence of ATP by radiometric assay relative to control.

Chain of Ribosomal protein S6 kinase alpha-6 (Homo sapiens) (Q9UK32 whole entry): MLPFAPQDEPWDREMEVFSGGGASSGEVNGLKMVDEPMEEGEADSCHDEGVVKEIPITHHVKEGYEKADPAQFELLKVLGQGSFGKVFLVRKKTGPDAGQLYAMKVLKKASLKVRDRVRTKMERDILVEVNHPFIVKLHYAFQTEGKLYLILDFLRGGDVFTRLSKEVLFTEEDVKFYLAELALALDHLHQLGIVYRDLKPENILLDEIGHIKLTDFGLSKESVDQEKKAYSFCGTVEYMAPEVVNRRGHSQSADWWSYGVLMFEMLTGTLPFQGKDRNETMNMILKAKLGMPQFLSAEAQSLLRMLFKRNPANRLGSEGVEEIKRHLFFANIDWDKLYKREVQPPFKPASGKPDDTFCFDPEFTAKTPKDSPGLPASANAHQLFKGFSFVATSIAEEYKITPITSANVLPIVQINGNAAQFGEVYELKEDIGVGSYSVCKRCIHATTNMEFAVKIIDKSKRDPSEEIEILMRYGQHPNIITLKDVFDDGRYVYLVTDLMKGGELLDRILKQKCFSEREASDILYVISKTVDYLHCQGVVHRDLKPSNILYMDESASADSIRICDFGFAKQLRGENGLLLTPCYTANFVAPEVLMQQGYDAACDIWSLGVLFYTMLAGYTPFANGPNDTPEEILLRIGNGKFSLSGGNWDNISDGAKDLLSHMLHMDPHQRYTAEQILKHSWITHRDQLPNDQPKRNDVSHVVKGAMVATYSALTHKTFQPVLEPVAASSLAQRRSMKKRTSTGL
Chain of Tyrosine-protein kinase Fer (Homo sapiens) (P16591 whole entry, looked up): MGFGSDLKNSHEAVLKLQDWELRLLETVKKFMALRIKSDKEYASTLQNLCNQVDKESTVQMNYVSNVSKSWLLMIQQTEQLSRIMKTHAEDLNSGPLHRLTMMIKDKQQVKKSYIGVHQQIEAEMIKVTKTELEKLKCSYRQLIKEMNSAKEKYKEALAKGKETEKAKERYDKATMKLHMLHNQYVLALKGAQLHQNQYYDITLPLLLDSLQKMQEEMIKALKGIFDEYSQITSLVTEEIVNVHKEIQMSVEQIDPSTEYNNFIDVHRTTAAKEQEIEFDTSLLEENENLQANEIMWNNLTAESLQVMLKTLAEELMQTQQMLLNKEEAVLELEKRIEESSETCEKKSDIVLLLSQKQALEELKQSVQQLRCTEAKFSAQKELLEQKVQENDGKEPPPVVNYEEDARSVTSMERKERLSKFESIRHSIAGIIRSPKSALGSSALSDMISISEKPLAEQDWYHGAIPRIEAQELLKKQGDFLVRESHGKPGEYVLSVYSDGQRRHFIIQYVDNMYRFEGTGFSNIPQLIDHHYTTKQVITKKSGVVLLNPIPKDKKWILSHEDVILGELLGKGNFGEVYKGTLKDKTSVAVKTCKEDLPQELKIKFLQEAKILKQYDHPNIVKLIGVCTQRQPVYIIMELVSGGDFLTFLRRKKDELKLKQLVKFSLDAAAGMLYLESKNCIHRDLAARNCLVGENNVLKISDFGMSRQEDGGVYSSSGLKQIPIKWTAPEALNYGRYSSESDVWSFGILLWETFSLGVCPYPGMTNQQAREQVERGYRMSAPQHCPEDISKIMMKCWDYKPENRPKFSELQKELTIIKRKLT
Chain of Tyrosine-protein kinase Lck (Homo sapiens) (P06239 2-509 limits assumed): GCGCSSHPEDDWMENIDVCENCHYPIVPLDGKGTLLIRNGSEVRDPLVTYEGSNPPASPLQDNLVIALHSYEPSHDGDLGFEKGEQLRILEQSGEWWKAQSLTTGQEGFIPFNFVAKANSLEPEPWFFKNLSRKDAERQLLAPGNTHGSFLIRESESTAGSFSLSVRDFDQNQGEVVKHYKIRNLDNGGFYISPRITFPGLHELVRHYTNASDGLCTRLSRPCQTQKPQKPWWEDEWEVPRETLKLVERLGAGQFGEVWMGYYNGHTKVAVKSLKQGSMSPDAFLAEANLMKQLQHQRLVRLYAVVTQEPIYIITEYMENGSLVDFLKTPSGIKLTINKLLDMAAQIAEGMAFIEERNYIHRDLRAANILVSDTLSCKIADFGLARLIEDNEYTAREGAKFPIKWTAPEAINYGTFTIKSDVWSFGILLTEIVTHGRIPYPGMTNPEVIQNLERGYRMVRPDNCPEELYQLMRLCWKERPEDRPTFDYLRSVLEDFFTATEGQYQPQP
Chain of Tyrosine-protein kinase Fgr (Homo sapiens) (P09769 2-529 limits assumed): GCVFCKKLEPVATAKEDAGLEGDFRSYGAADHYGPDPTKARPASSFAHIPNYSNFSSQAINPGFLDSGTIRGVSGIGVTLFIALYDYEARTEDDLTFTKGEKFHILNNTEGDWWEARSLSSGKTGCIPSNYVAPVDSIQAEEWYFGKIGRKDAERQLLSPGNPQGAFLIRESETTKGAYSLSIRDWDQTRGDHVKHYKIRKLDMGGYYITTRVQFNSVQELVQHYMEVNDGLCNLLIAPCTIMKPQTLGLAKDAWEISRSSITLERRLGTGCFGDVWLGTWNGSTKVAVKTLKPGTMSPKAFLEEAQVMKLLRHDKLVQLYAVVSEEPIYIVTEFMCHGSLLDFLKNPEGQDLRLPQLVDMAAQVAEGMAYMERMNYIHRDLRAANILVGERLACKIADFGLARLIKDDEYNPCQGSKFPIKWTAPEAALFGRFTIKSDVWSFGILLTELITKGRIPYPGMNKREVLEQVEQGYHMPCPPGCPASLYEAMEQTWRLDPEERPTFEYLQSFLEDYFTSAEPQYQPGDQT

As usually defined, the inhibition is the percentage by which the read-out fell short of the control. As for `O=C(N[C@@H](C1CC1)C(F)(F)F)c1cc(-c2cnn3cc(-c4ccc(F)cc4)cnc23)cs1`, the inhibition in assay [1] turned out to be 0%. The fold change (FC) in assay [2] worked out at 0.16.

On to `CNC(=O)c1ccccc1Oc1nc(Nc2cc(OC)c(OC)c(OC)c2)ncc1Br`, for which the fold change (FC) in assay [3] came out at 0.18; in assay [4], 0.96. Also, in assay [5], the inhibition amounted to 8%.

For the molecule `CC(C)[C@H](NC(=O)c1cc(-c2cnn3cc(-c4ccc(OCCN5CCCCC5)cc4)cnc23)cs1)C(F)(F)F`, the fold change (FC) in assay [6] and in assay [10] was 0.09 each time. Moreover, the inhibition in assay [7] was determined as 0%; in [8], 0%; in assay [9], 3%; in assay [11], 79%.

For the origin of these results see ChEMBL document CHEMBL5653631, “A Potent and Selective ULK1 Inhibitor Suppresses Autophagy and Sensitizes Cancer Cells to Nutrient Stress” (iScience, 2018).
